{"source": "patent US20080026447A1", "about": "“Assay for determining factor viia inhibitor concentration in plasma samples” (Bristol-Myers Squibb Company, priority 2006, published 2008)", "key": {"factor VIIa [1]": {"biological_target": "T1, factor VIIa (Homo sapiens, UniProt P08709)", "T1 construct": "proteolytic cleavage of factor X to factor Xa, factor IX to factor IXa and additional factor VII to factor VIIa", "T1 sequence (P08709 61-212 limits assumed)": "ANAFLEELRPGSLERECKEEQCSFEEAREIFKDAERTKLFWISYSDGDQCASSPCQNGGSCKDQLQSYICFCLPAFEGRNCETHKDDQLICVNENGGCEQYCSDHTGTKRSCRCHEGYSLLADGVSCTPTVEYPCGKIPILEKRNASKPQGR", "T1 sequence (P08709 213-466 limits assumed)": "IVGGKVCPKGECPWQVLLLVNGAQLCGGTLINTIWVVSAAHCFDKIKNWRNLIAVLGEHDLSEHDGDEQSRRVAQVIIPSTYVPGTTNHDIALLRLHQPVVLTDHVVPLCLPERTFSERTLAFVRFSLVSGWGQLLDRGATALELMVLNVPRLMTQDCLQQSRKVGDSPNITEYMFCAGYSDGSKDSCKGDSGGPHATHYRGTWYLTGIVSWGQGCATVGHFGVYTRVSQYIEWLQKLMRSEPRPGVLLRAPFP", "T1 sequence (P13726 with tags, fused parts or gaps partner limits assumed)": "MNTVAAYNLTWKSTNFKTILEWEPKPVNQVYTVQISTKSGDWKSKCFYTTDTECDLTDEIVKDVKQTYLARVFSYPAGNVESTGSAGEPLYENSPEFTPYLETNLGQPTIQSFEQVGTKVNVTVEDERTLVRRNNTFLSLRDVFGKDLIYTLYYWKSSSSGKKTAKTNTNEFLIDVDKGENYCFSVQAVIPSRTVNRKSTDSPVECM", "experiment": "Factor VIIa substrate hydrolysis (amidolytic activity) in factor X deficient plasma", "format": "biochemical", "conditions": "1 μM inhibitor, 85% factor X deficient plasma, 0.5 nM factor VIIa, D-Ile-Pro-Arg-AFC, FIG. 2", "description": "The assay was carried out in a fluorescence plate reader at room temperature. factor VIIa substrate hydrolysis (amidolytic activity on the substrate) was monitored for 30 minutes at an excitation wavelength of 400 nm and an emission wavelength of 535 nm. […] Such interference is primarily due to hydrolysis of the relatively nonspecific peptide substrate by downstream proteases such as factor Xa and thrombin."}, "factor VIIa [2]": {"biological_target": "T1, factor VIIa", "experiment": "Factor VIIa inhibition in buffer and in factor X deficient human plasma", "format": "biochemical", "conditions": "2.5 nM factor VIIa, FIG. 5", "description": "Protein binding of the inhibitor 2-(1-aminoisoquinolin-6-ylamino)-2-(3-ethoxy-4-isopropoxyphenyl)-N-(4-hydroxyphenylsulfonyl)acetamide was determined by measuring factor VIIa inhibition by the test inhibitor in buffer and then in factor X deficient human plasma. […] In FIG. 5, one set of samples contained 2.5 nM factor VIIa, 28 nM soluble tissue factor, 10 mM CaCl2 100 nM D-Ile-Pro-Arg-AFC and varying concentrations of factor VIIa inhibitor 2-(1-aminoisoquinolin-6-ylamino)-2-(3-ethoxy-4-isopropoxyphenyl)-N-(4-hydroxyphenylsulfonyl)acetamide (Compound B). The second sample set was identical to the first set with the addition of 90% factor X deficient plasma. All samples were diluted in 50 mM HEPES pH 7.5, 150 mM NaCl, 0.1% polyethyleneglycol 8000 and 0.1% bovine serum albumin. The assay was carried out in a fluorescence plate reader at room temperature at an excitation wavelength of 400 nm and an emission wavelength of 535 nm. The fraction of the inhibitor bound to plasma protein was calculated according to the following formula: 1-IC50 in buffer/IC50 in plasma. […] Protein binding of 2-(1-aminoisoquinolin-6-ylamino)-2-(3-ethoxy-4-isopropoxyphenyl)-N-(4-hydroxyphenylsulfonyl)acetamide was determined to be 99.2%."}, "[3]": {"experiment": "Binding of factor VIIa inhibitor to plasma proteins (shift in IC50, buffer vs plasma)", "format": "in vitro ADME", "conditions": "pH 7.5, probe D-Ile-Pro-Arg-AFC (fluorogenic factor VIIa substrate); factor X deficient human plasma; 1-IC50 in buffer/IC50 in plasma; read-out: Protein binding (converted)", "text": "Some embodiments of the present invention provide methods for determining the plasma protein binding affinity of a factor VIIa inhibitor for other plasma proteins. Factor VIIa inhibitors having low plasma protein binding affinity for plasma proteins other than factor VIIa are preferred because more unbound factor VIIa inhibitor is available to bind and inhibit factor VIIa. The term “low protein binding factor VIIa inhibitor” as used herein means, a factor VIIa inhibitor that decreases the activity of factor VIIa in the presence or absence of other plasma proteins. […] The fraction of inhibitor bound to plasma protein is calculated by 1-IC50 in buffer/IC50 in plasma.\nProtein binding of the inhibitor 2-(1-aminoisoquinolin-6-ylamino)-2-(3-ethoxy-4-isopropoxyphenyl)-N-(4-hydroxyphenylsulfonyl)acetamide was determined by measuring factor VIIa inhibition by the test inhibitor in buffer and then in factor X deficient human plasma. […] The assay was carried out in a fluorescence plate reader at room temperature at an excitation wavelength of 400 nm and an emission wavelength of 535 nm. The fraction of the inhibitor bound to plasma protein was calculated according to the following formula: 1-IC50 in buffer/IC50 in plasma. […] Protein binding of 2-(1-aminoisoquinolin-6-ylamino)-2-(3-ethoxy-4-isopropoxyphenyl)-N-(4-hydroxyphenylsulfonyl)acetamide was determined to be 99.2%."}, "[4]": {"experiment": "Factor VIIa inhibitor concentration in plasma samples from dosed rabbits (functional assay)", "format": "in vivo", "conditions": "sample B6, plasma from dosed rabbit; IC50 of standard curve × plasma dilution factor giving 50% inhibition", "description": "Plasma was prepared from tested blood samples drawn from rabbits dosed with (R)-N-(5-acetamido-2-(ethylsulfonyl)benzyl)-2-(1-aminoisoquinolin-6-ylamino)-2-(3,4-dimethoxyphenyl)acetamide (Compound C) into buffered citrate. The samples were diluted and combined with tissue factor, factor VIIa, Ca^++, factor Xa inhibitor 2-(3-Aminomethyl-phenyl)-5-trifluoromethyl-2H-pyrazole-3-carboxylic acid (3-fluoro-2′-methanesulfonyl-biphenyl-4-yl)-amide and fluorogenic factor VIIa substrate D-Ile-Pro-Arg-AFC. The inhibitory activity of the tested sample was measured by monitoring the fluorescence of the D-Ile-Pro-Arg-AFC product and comparing the activity to standard curve constructed with plasma from an undosed rabbit spiked with known concentrations of the (R)-N-(5-acetamido-2-(ethylsulfonyl)benzyl)-2-(1-aminoisoquinolin-6-ylamino)-2-(3,4-dimethoxyphenyl)acetamide. […] The assay was carried out in a fluorescent plate reader at room temperature at an excitation wavelength of 400 nm and an emission wavelength of 535 nm. […] IC50 of the standard curve was calculated using floating top and bottom to account for the background signal not originating from factor VIIa activity. […] The concentration of (R)-N-(5-acetamido-2-(ethylsulfonyl)benzyl)-2-(1-aminoisoquinolin-6-ylamino)-2-(3,4-dimethoxyphenyl)acetamide present in sample B6 was calculated to be 338.5 nM. […]"}}, "note": "Read-outs that look alike come from different tables or passages of the source.", "data": [{"smiles": "COc1cc([C@@H]2Nc3ccc(C(=N)N)cc3[C@H]3c4ccccc4C[C@H]32)c(-c2ccc(C(=O)O)cc2)cc1O", "note": "[2′-((6R,6aR,11bR)-2-carbamimidoyl-6,6a,7,11b-tetrahydro-5H-indeno[2,1-c]quinolin-6-yl)-5′-hydroxy-4′-methoxybiphenyl-4-carboxylic acid]", "values": [{"measurement": "inhibition of amidolytic activity in factor X deficient plasma", "setting": "factor VIIa [1]", "result": "most of it is inhibited"}]}, {"smiles": "CCOc1cc(C(Nc2ccc3c(N)nccc3c2)C(=O)NS(=O)(=O)c2ccc(O)cc2)ccc1OC(C)C", "note": "(centres unmarked) [Compound B, 2-(1-aminoisoquinolin-6-ylamino)-2-(3-ethoxy-4-isopropoxyphenyl)-N-(4-hydroxyphenylsulfonyl)acetamide]", "values": [{"measurement": "IC50", "setting": "factor VIIa [2]; 90% factor X deficient plasma, read-out: IC50 in plasma", "result": 3300, "unit": "nM"}, {"measurement": "IC50", "setting": "factor VIIa [2]; buffer without plasma, read-out: IC50 in buffer", "result": 26, "unit": "nM"}, {"measurement": "fraction unbound", "setting": "[3]", "result": 0.008}]}, {"smiles": "CCS(=O)(=O)c1ccc(NC(C)=O)cc1CNC(=O)[C@H](Nc1ccc2c(N)nccc2c1)c1ccc(OC)c(OC)c1", "note": "[Compound C, (R)-N-(5-acetamido-2-(ethylsulfonyl)benzyl)-2-(1-aminoisoquinolin-6-ylamino)-2-(3,4-dimethoxyphenyl)acetamide]", "values": [{"measurement": "concentration present in plasma sample", "setting": "[4]", "result": 338.5, "unit": "nM"}]}]}
